Test results from ChEMBL document CHEMBL5042518, “Design of a Potent TLX Agonist by Rational Fragment Fusion” (J Med Chem, 2022).
Calls of active or inactive are those of the source. The rule behind the calls is not given here.

Key:
[1] = target: T1, Nuclear receptor subfamily 2 group E member 1 (Homo sapiens, UniProt Q9Y466); assay: Agonist activity at human Gal4-fused TLX LBD expressed in human HEK293T cells coexpressing Gal4-VP16 assessed as repressor activity of receptor by measuring decrease in reporter activity at 30 uM measured after 14 hrs by Dual-Glo Luciferase assay; assay type: cell-based
T1 sequence (Q9Y466 whole entry, the tested form may be a part): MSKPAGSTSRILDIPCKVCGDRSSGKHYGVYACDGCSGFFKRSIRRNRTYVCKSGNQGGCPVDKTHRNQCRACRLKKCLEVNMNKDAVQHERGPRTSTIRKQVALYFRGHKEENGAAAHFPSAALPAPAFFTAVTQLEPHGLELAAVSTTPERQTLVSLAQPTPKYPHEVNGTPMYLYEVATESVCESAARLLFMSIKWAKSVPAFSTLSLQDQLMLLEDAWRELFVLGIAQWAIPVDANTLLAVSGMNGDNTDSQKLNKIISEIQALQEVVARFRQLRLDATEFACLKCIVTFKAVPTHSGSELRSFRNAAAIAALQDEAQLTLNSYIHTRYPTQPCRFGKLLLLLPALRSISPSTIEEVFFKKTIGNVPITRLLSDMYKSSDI

HEK-293T [2] = assay: Effect on Gal4-VP16 plasmid transfected in human HEK293T cells assessed as reporter activity at 100 uM incubated for 14 hrs by luciferase assay; assay type: functional, cell-based
[3] = target: T1, Nuclear receptor subfamily 2 group E member 1; assay: Agonist activity at human Gal4-fused TLX LBD expressed in human HEK293T cells coexpressing Gal4-VP16 assessed as repressor activity of receptor by measuring decrease in reporter activity measured after 14 hrs by Dual-Glo Luciferase assay; assay type: cell-based
[4] = target: T1, Nuclear receptor subfamily 2 group E member 1; assay: Agonist activity at human full length Gal4-fused TLX transfected in human HEK293T cells coexpressing pFR-TAE-Luc assessed as repressor activity of receptor by measuring decrease in reporter activity by dual-glo luciferase assay; assay type: cell-based
[5] = target: T1, Nuclear receptor subfamily 2 group E member 1; assay: Binding affinity to recombinant TLX LBD (unknown origin) by differential scanning fluorometry
[6] = target: T1, Nuclear receptor subfamily 2 group E member 1; assay: Destabilization of recombinant TLX LBD (unknown origin) assessed as change in enthalpy at 100 uM by isothermal titration calorimetry; settings: filed as agonist
[7] = target: T1, Nuclear receptor subfamily 2 group E member 1; assay: Agonist activity at TLX (unknown origin) assessed as induction of receptor oligomerization using sGFP-labeled TLX LBD as acceptor and biotin TLX LBD as donor measured after 20 hrs incubation at RT and 2 hrs at 37 degC by HTRF assay
HEK-293T [8] = assay: Cytotoxicity against human HEK293T cells assessed as reduction in cell viability incubated for 24 hrs by WST-1 assay; assay type: toxicity, cell-based
[9] = Half life in Sprague-Dawley rat liver microsomes at 10 uM pretreated for 30 mins with NADPH regenerating system followed by incubation with microsomes for 60 mins by HPLC analysis; assay type: ADME, Microsome; settings: time 90 min
[10] = target: T1, Nuclear receptor subfamily 2 group E member 1; assay: Agonist activity at TLX in human T98G cells assessed as upregulation of SIRT1 mRNA expression at 3 uM measured after 8 hrs by qRT-PCR analysis; assay type: cell-based; settings: filed as agonist
T98G [11] = assay: Upregulation of TLX gene expression in human T98G cells at 3 uM measured after 8 hrs by qRT-PCR analysis; assay type: functional, cell-based
[12] = Solubility of the compound in DSF buffer in presence of 2% DMSO; assay type: physicochemical
[13] = target: T1, Nuclear receptor subfamily 2 group E member 1; assay: Destabilization of recombinant TLX LBD (unknown origin) assessed as change in entropy at 100 uM by isothermal titration calorimetry; settings: filed as agonist
HEK-293T [14] = assay: Cytotoxicity against human HEK293T cells assessed as reduction in cell viability at >10 uM incubated for 24 hrs by WST-1 assay; assay type: toxicity, cell-based
[15] = target: T1, Nuclear receptor subfamily 2 group E member 1; assay: Agonist activity at human Gal4-fused TLX LBD expressed in human HEK293T cells coexpressing Gal4-VP16 assessed as repressor activity of receptor by measuring decrease in reporter activity at 0.03 to 30 uM measured after 14 hrs by Dual-Glo Luciferase assay; assay type: cell-based; settings: filed as agonist, dose 0.03-30 µM
[16] = target: T1, Nuclear receptor subfamily 2 group E member 1; assay: Agonist activity at human full length Gal4-fused TLX transfected in human HEK293T cells coexpressing pFR-TAE-Luc assessed as repressor activity of receptor by measuring decrease in reporter activity at 0.03 to 30 uM by dual-glo luciferase assay; assay type: cell-based; settings: dose 0.03-30 µM
[17] = target: T1, Nuclear receptor subfamily 2 group E member 1; assay: Agonist activity at TLX in human T98G cells assessed as upregulation of SIRT1 mRNA expression at 30 uM measured after 8 hrs by qRT-PCR analysis; assay type: cell-based; settings: filed as agonist
T98G [18] = assay: Upregulation of TLX gene expression in human T98G cells at 30 uM measured after 8 hrs by qRT-PCR analysis; assay type: functional, cell-based
[19] = target: T1, Nuclear receptor subfamily 2 group E member 1; settings: filed as agonist, dose 100.0 µM
HEK-293T [20] = assay: Cytotoxicity against human HEK293T cells assessed as reduction in cell viability at >=10 uM incubated for 24 hrs by WST-1 assay; assay type: toxicity, cell-based
[21] = Drug degradation in Sprague-Dawley rat liver microsomes at 10 uM pretreated for 30 mins with NADPH regenerating system followed by incubation with microsomes for 30 mins by HPLC analysis; assay type: ADME, Microsome; settings: time 60 min, read-out: Drug degradation
T98G [22] = assay: Upregulation of TLX gene expression in human T98G cells at 10 uM measured after 8 hrs by qRT-PCR analysis; assay type: functional, cell-based

With `Cc1cn(-c2cc(NC(=O)C3CCc4[nH]c5ccccc5c4C3)cc(C(F)(F)F)c2)cn1` (stereo not drawn) the Activity [1] was “inactive”.
For `CCCCOc1cc(C(=O)Nc2cc(-n3cnc(C)c3)cc(C(F)(F)F)c2)c2ccccc2n1`, the Activity (HEK-293T [2]) was “inactive”, the EC50 [3] was 0.25 µM and the EC50 [4] was 0.7 µM. It also gave a Kd [5] of 1.6 µM, a deltaH [6] of 477 kJ/mol and an EC50 [7] of 5 µM. For the same compound, the Activity (HEK-293T [8]) was “Non-Toxic”, the half-life at 10 µM [9] was 2.37 h and the Activity [10] was “Active”. The Activity (T98G [11]) was “inactive”, the solubility [12] was “Soluble” and the TdeltaS [13] was 515 kJ/mol.
Work on `Cc1cn(-c2cc(NC(=O)N3CCN(c4ccc(O)cc4)CC3)cc(C(F)(F)F)c2)cn1` yielded an EC50 [3] of 5 µM.
With `CC1(C)CC=C(c2ccccc2)c2cc(/C=C/c3ccc(C(=O)O)cc3)ccc21` the Activity (HEK-293T [14]) was “Toxic”, the solubility [12] was “Soluble” and the Activity [15] was “Active”. For the same compound, the Activity [16] was “inactive”.
In the case of `Cc1cn(-c2cc(N)cc(C(F)(F)F)c2)cn1`, the Activity (HEK-293T [2]) is reported as “inactive”, the EC50 [3] is reported as 20 µM and the solubility [12] is reported as “Soluble”. The Activity [17] was “Active”, the Activity (T98G [18]) was “inactive” and the ΔTm [19] was -1.69 °C.
With `Cc1cn(-c2cc(NC(=O)C(c3ccccc3)c3ccccc3)cc(C(F)(F)F)c2)cn1` the Activity (HEK-293T [20]) was “Toxic”.
Compound `COc1cc(N)c(Cl)cc1C(=O)Nc1cc(-n2cnc(C)c2)cc(C(F)(F)F)c1` has an EC50 [3] of 3 µM.
For `CC(=O)Nc1cc(-n2cnc(C)c2)cc(C(F)(F)F)c1`, the EC50 [3] was 11 µM.
With `Cc1cn(-c2cc(NC(=O)COc3cccc4ccccc34)cc(C(F)(F)F)c2)cn1` the Activity [1] was “inactive”.
`Cc1cn(-c2cc(NC(=O)CCCc3ccc(-c4ccccc4)cc3)cc(C(F)(F)F)c2)cn1` gave an EC50 [3] of 1.2 µM.
For `Cc1cc(C(=O)N2CCN(C(c3ccccc3)c3ccccc3)CC2)nn1C`, the Activity (HEK-293T [8]) was “Non-Toxic”, the metabolised at 1 h, 10 µM [21] was 100% and the Activity (T98G [22]) was “inactive”. For the same compound, the ΔTm [19] was -1.08 °C.
